Results from US12268694B2, “Combination pharmaceutical agents as RSV inhibitors” (Enanta Pharmaceuticals, Inc., priority 2017, dated 2025).
Read-outs that look alike come from different tables or passages of the source.

Tested on: genotype A, "Long" strain RSV
Test: RSV-A assay: CPE protection in HEp-2 cells, ATPlite readout
Type: cell-based, human respiratory syncytial virus
From the text: HEp-2 cells, (originally derived from tumors grown in irradiated-cortisonised weanling rats that had been injected with epidermoid carcinoma tissue from a person's larynx, but later found to be indistinguishable from HeLa cells by PCR DNA analysis), were used for the culturing of genotype A, “Long” strain RSV. Flasks were inoculated with RSV and viral stocks were collected once cytopathic effect (CPE) was greater than 90%. Viral stocks in 25% sucrose media were snap frozen using liquid nitrogen to increase viral stability. Viral stock titers were quantified by tissue culture infectious dose 50% (TCID50) using 8,000 cells per well and 3-fold viral dilutions across a 96-well plate, cultured for 4 days. Viral stock titers were also quantified by a plaque forming unit assay, as described elsewhere.
Following extensive parameter testing, the final assay is run as follows: HEp-2 cells are seeded into the inner 60 wells of a 96-well plate at 8,000 cells per well in a volume of 50 μL using Growth Media (DMEM without phenol red, 1% L-Glut, 1% Penn/Strep, 1% nonessential amino acids, 10% heat-inactivated FBS). 2-fold serial dilutions of control and test compounds are added to the wells in duplicate in a total volume of 25 μL. Viral stock is then added to the wells at a multiplicity of infection (MOI) of 0.1 in a volume of 25 μL, bringing the total volume of each well to 100 μL. The MOI is calculated using the PFU/mL, or TCID50 if unavailable. Each 96-well plate has a control column of 6 wells with cells and virus but no compound (negative control, max CPE), a column with cells but no compound or virus (positive control, minimum CPE), and a column with no cells or virus or compound (background plate/reagent control). The control wells with cells but no virus are given an additional 25 μL of growth media containing an equal quantity of sucrose as those wells receiving the viral stock in order to keep consistent in media and volume conditions. The outer wells of the plate are filled with 125 μL of moat media (DMEM, 1% Penn/Strep) to act as a thermal and evaporative moat around the test wells. Following a 5-day incubation period, the plates are read using ATPlite (50 μL added per well), which quantifies the amount of ATP (a measure of cell health) present in each well. Assay plates are read using the Envision luminometer. In parallel, cytotoxicity is examined on an additional 96-well plate treated in an identical manner, but substituting the 25 μL of viral stock for 25 μL of growth media. […] EC50 ranges are as follows: A <0.4 μM; B 0.4-0.8 μM; C >0.8 μM and CC50 ranges are as follows: A >50 μM; B 10-50 μM; C <10 μM.

[1] = human respiratory syncytial virus, HEp-2, read-out: Human RSV-A (“Long” strain) EC50
[2] = HEp-2 cells, RSV-A Long strain, ATPlite readout, read-out: Human RSV-A (“Long” strain) EC50

SMILES	EC50 [1] [nM]	EC50 [2] [nM]
CN[C@H](c1ccccc1)c1nnc(NC2N=C(c3ccccc3)c3ccccc3NC2=O)o1 (some centres unmarked) [Example 238]	> 800	–
Cn1cc(-c2nc(-c3nnc(N[C@H]4N=C(c5ccccc5)c5ccccc5NC4=O)o3)c(N3CCOCC3)s2)cn1 [Example 399]	< 400	–
CC1(C)CC(c2nnc(NC3N=C(c4ccccc4)c4ccccc4NC3=O)o2)C1 (centres unmarked) [Example 206]	> 800	–
CCc1nc(N2CCOCC2)c(-c2nnc(N[C@H]3N=C(c4ccccc4)c4ccccc4NC3=O)o2)cc1C#N [Example 176]	< 400	–
CC(C)(Cc1ccccc1)c1nnc(NC2N=C(c3ccccc3)c3ccccc3NC2=O)o1 (centres unmarked) [Example 208]	> 800	–
N#Cc1cnc(-c2nnc(N[C@H]3N=C(c4ccccc4)c4ccccc4NC3=O)o2)c(N2C3CCC2COC3)c1 [Example 333]	400 to 800	–
CCn1cc(-c2nnc(N[C@H]3N=C(c4ccccc4)c4ccccc4NC3=O)o2)c(N2CCOCC2)n1 [Example 401]	< 400	–
CC(C)(C)c1nnc(NC2N=C(c3ccccc3)c3ccccc3NC2=O)o1 (centres unmarked) [Example 189]	> 800	–
CS(=O)(=O)c1ccc(-c2nnc(NC3N=C(c4ccccc4)c4ccccc4NC3=O)o2)nc1 (centres unmarked) [Example 107]	> 800	–
O=C1Nc2ccccc2C(c2ccccc2)=N[C@@H]1Nc1nnc(-c2cnn(-c3ccccc3)c2)o1 [Example 350]	400 to 800	–
Cn1ncc(N2CCOCC2)c1-c1nnc(N[C@H]2N=C(c3ccccc3)c3ccccc3NC2=O)o1 [Example 178]	400 to 800	–
O=C1Nc2c(F)cccc2C(c2ccccc2)=N[C@@H]1Nc1nnc(-c2ncc(C(F)(F)F)cc2N2CCOCC2)o1 (single isomer, unassigned) [Example 359]	–	< 400
COC1C2CN(c3cc(C(F)(F)F)cnc3-c3nnc(N[C@H]4N=C(c5ccccc5)c5ccccc5NC4=O)o3)CC21 (some centres unmarked) [Example 439]	> 800	–
O=C1Nc2ccccc2C(c2ccccc2)=N[C@@H]1Nc1nnc(-c2ccc(N3CCCC3)cc2N2CCOCC2)o1 [Example 317]	< 400	–
O=C1Nc2ccccc2C(c2ccccc2)=NC1Nc1ccc(-c2ccncc2)nn1 (centres unmarked) [Example 375]	> 800	–
O=C1Nc2ccccc2C(c2ccccc2)=NC1Nc1nnc(-c2cccnc2N2CCC(F)CC2)o1 (centres unmarked) [Example 256]	> 800	–
CN(C)CCOc1ccccc1-c1nnc(NC2N=C(c3ccccc3)c3ccccc3NC2=O)o1 (centres unmarked) [Example 234]	> 800	–
O=C1Nc2ccccc2C(c2ccccc2)=NC1Nc1nnc(-c2cccc(N3CCOCC3)c2)o1 (centres unmarked) [Example 111]	> 800	–
O=C1Nc2ccccc2C(c2ccccc2)=N[C@@H]1Nc1nnc(-c2ccnn2-c2ccccc2)o1 [Example 349]	> 800	–
O=C1Nc2ccccc2C(c2ccccc2)=N[C@@H]1Nc1nnc(-c2nc(C(F)(F)F)sc2N[C@@H]2CCOC2)o1 [Example 474]	< 400	–

SMILES	EC50 [1] [nM]	EC50 [2] [nM]
O=C1Nc2ccccc2C(c2ccccc2)=NC1Nc1cnc(-c2ccc(F)cc2)cn1 (centres unmarked) [Example 373]	> 800	–
O=C1Nc2ccccc2C(c2ccccc2)=NC1Nc1nnc(-c2ccc(N3CCOCC3)cn2)o1 (centres unmarked) [Example 114]	> 800	–
O=C1Nc2ccccc2C(c2ccccc2)=NC1Nc1nnc(C2CC(F)(F)C2)o1 (centres unmarked) [Example 214]	> 800	–
CO[C@@H]1COC[C@H]1Nc1cc(C(F)(F)F)cnc1-c1nnc(N[C@H]2N=C(c3ccccc3)c3ccccc3NC2=O)o1 [Example 436]	< 400	–
COCCCc1sc(C(F)(F)F)nc1-c1nnc(N[C@H]2N=C(c3ccccc3)c3ccccc3NC2=O)o1 [Example 396]	> 800	–
N#Cc1ccc(-c2nnc(N[C@H]3N=C(c4ccccc4)c4ccccc4NC3=O)o2)c(-c2ccsc2)c1 [Example 309]	> 800	–
O=C1Nc2ccccc2C(c2ccccc2)=N[C@@H]1Nc1nnc(-c2ccc(N3CCOCC3)cc2F)o1 [Example 126a]	< 400	–
O=C1Nc2ccccc2C(c2ccccc2)=NC1Nc1nnc(-c2nccnc2N2CCOCC2)o1 (centres unmarked) [Example 143]	< 400	–
O=C1Nc2ccccc2C(c2ccccc2)=NC1Nc1nnc(-c2ccc(C(F)(F)F)nc2N2CCOCC2)o1 (centres unmarked) [Example 130]	400 to 800	–
O=C1Nc2ccccc2C(c2ccccc2)=N[C@@H]1Nc1nnc(-c2cnc(-n3cncn3)nc2N2CCOCC2)o1 [Example 173]	> 800	–
O=C1Nc2ccccc2C(c2ccccc2)=NC1Nc1nnc(-c2cccnc2N2CC(F)(F)C2)o1 (centres unmarked) [Example 259]	> 800	–
COCCNc1sc(C)nc1-c1nnc(N[C@H]2N=C(c3ccccc3)c3ccccc3NC2=O)o1 [Example 335]	< 400	–
Cc1nc(-c2nnc(N[C@H]3N=C(c4ccccc4)c4ccccc4NC3=O)o2)c(N2CCOCC2)o1 [Example 337]	< 400	–
Cc1nc(-c2nnc(NC3N=C(c4ccccc4)c4ccccc4NC3=O)o2)ccc1C#N (centres unmarked) [Example 200]	400 to 800	–
N#Cc1cnc(N2CCOCC2)c(-c2nnc(N[C@H]3N=C(c4ccccc4)c4ccccc4NC3=O)o2)c1 [Example 174]	< 400	–
O=C1Nc2ccccc2C(c2ccccc2)=NC1Nc1nnc(CC(F)(F)F)o1 (centres unmarked) [Example 203]	> 800	–
CO[C@H]1CCN(c2ncccc2-c2nnc(NC3N=C(c4ccccc4)c4ccccc4NC3=O)o2)C1 (some centres unmarked) [Example 247]	> 800	–
COc1ccc(-c2nnc(N[C@H]3N=C(c4ccccc4)c4ccccc4NC3=O)o2)c(N2CCOCC2)n1 [Example 295]	< 400	–
O=C1Nc2ccccc2C(c2ccccc2)=NC1Nc1nnc(-c2nc(Br)sc2N2CCOCC2)o1 (centres unmarked) [Example 400]	< 400	–
O=C1Nc2ccccc2C(c2ccccc2)=N[C@@H]1Nc1nnc(-c2cn(-c3ccc(C(F)(F)F)nc3)nc2N2CCOCC2)o1 [Example 444]	–	< 400

SMILES	EC50 [1] [nM]	EC50 [2] [nM]
O=C1Nc2ccccc2C(c2ccccc2)=NC1Nc1nnc(-c2cnccc2N2CCOCC2)o1 (centres unmarked) [Example 133]	400 to 800	–
Cc1nc(-c2nnc(N[C@H]3N=C(c4ccccc4)c4ccccc4NC3=O)o2)c(C2=CCOCC2)s1 [Example 345, (S)-3-((5-(5-(3,6-dihydro-2H-pyran-4-yl)-2-methylthiazol-4-yl)-1,3,4-oxadiazol-2-yl)amino)-5-phenyl-1,3-dihydro-2H-benzo[e][1,4]diazepin-2-one]	< 400	–
O=C1Nc2ccccc2C(c2ccccc2)=N[C@@H]1Nc1nnc(-c2ncc3ccccc3c2N2CCOCC2)o1 [Example 316]	> 800	–
CCCc1nnc(NC2N=C(c3ccccc3)c3ccccc3NC2=O)o1 (centres unmarked) [Example 190]	> 800	–
COc1cc(-c2nnc(NC3N=C(c4ccccc4)c4ccccc4NC3=O)o2)ccn1 (centres unmarked) [Example 56]	> 800	–
O=C1Nc2ccccc2C(c2ccccc2)=NC1Nc1nnc(-c2cc(F)cnc2N2CCOCC2)o1 (centres unmarked) [Example 145]	400 to 800	–
COCCc1cccn2ncc(-c3nnc(N[C@H]4N=C(c5ccccc5)c5ccccc5NC4=O)o3)c12 [Example 411]	> 800	–
COCc1ccc2nccc(-c3nnc(N[C@H]4N=C(c5ccccc5)c5ccccc5NC4=O)o3)c2c1 [Example 409]	> 800	–
O=C1Nc2ccccc2C(c2ccccc2)=NC1Nc1nnc(-c2cnccc2N2CCCCC2)o1 (centres unmarked) [Example 134]	> 800	–
C[C@@H]1CN(c2ncccc2-c2nnc(NC3N=C(c4ccccc4)c4ccccc4NC3=O)o2)CCO1 (some centres unmarked) [Example 262]	> 800	–
O=C1Nc2ccccc2C(c2ccccc2)=NC1Nc1ccc(-c2ccc(F)cc2)nn1 (centres unmarked) [Example 374]	> 800	–
N#CCCc1nnc(NC2N=C(c3ccccc3)c3ccccc3NC2=O)o1 (centres unmarked) [Example 193]	> 800	–
COc1ccc2nccc(-c3nnc(N[C@H]4N=C(c5ccccc5)c5ccccc5NC4=O)o3)c2c1 [Example 408]	> 800	–
COCCN(C)c1ccc(-c2nnc(NC3N=C(c4ccccc4)c4ccccc4NC3=O)o2)cc1 (centres unmarked) [Example 118]	> 800	–
N#Cc1cc(N2CCOCC2)c(-c2nnc(N[C@H]3N=C(c4ccccc4)c4ccccc4NC3=O)o2)s1 [Example 323]	< 400	–
O=C1Nc2ccccc2C(c2ccccc2)=N[C@@H]1Nc1nnc(-c2ncc(C(F)(F)F)cc2N2CCOC(C(F)(F)F)C2)o1 (mixture of isomers) [Example 467]	< 400	–
Cc1ccc(-c2nnc(N[C@H]3N=C(c4ccccc4)c4ccccc4NC3=O)o2)c(N2CC3CCC(C2)O3)n1 [Example 279]	< 400	–
CCOC(=O)c1nnc(NC2N=C(c3ccccc3)c3ccccc3NC2=O)o1 (centres unmarked) [Example 78]	> 800	–
O=C1Nc2ccccc2C(c2ccccc2)=N[C@@H]1Nc1nnc(-c2ncc(C(F)(F)F)cc2NC2COC2)o1 [Example 469]	< 400	–
